Values quoted from earlier work in PMC9405102, “Targeted Modification and Structure-Activity Study of GL-29, an Analogue of the Antimicrobial Peptide Palustrin-2ISb” (Antibiotics, 2022).

Experiments:
[1] = test system: Staphylococcus aureus (S. aureus); parameters: method as in PMID 21911019; conditions: cited from earlier work
[2] = test system: Escherichia coli (E. coli); parameters: method as in PMID 21911019; conditions: cited from earlier work
[3] = test system: methicillin-resistant S. aureus (MRSA); parameters: method as in PMID 21911019; conditions: cited from earlier work
C. albicans = test system: C. albicans; parameters: method as in PMID 21911019; conditions: at 100 μM; cited from earlier work
[4] = test system: Gram-positive and Gram-negative bacteria; parameters: method as in PMID 21193000; conditions: cited from earlier work

GLWNSIKIAGKKLFVNVLDKIRCKVAGGCKTSPDVE [palustrin-2ISb, parent antimicrobial peptide of 36 residues isolated from Odorrana ishikawae]
MIC [1]: 6.3 µM | MIC [2]: 6.3 µM | MIC [3]: 100 µM | activity against C. albicans (C. albicans): no activity

GKKLFVNVLDKIRCKVAGGC [palustrin-2ISb-des-C7-des-N9, literature analogue with one helical part of Pa2ISb-des-C7]
activity against Gram-positive and Gram-negative bacteria [4]: little activity
